# Reference: paper PMC13001051, “TRPA1-kinase axis polarization: Nepetalactone drives pest repulsion and predator attraction via divergent PKC/CaMKII signaling” (Journal of Advanced Research, 2025)
# Columns and labels:
# Experiment in all cases: Fluo-4 calcium flux in transfected HEK293T cells
# HaTRPA1 = target: T1, HaTRPA1 (Harmonia axyridis, UniProt Z9S2A3GZC9); type: cell-based
# T1 construct: full-length in pcDNA3.1(+)-mCherry, HEK293T cells
# T1 sequence (Z9S2A3GZC9 1-1276): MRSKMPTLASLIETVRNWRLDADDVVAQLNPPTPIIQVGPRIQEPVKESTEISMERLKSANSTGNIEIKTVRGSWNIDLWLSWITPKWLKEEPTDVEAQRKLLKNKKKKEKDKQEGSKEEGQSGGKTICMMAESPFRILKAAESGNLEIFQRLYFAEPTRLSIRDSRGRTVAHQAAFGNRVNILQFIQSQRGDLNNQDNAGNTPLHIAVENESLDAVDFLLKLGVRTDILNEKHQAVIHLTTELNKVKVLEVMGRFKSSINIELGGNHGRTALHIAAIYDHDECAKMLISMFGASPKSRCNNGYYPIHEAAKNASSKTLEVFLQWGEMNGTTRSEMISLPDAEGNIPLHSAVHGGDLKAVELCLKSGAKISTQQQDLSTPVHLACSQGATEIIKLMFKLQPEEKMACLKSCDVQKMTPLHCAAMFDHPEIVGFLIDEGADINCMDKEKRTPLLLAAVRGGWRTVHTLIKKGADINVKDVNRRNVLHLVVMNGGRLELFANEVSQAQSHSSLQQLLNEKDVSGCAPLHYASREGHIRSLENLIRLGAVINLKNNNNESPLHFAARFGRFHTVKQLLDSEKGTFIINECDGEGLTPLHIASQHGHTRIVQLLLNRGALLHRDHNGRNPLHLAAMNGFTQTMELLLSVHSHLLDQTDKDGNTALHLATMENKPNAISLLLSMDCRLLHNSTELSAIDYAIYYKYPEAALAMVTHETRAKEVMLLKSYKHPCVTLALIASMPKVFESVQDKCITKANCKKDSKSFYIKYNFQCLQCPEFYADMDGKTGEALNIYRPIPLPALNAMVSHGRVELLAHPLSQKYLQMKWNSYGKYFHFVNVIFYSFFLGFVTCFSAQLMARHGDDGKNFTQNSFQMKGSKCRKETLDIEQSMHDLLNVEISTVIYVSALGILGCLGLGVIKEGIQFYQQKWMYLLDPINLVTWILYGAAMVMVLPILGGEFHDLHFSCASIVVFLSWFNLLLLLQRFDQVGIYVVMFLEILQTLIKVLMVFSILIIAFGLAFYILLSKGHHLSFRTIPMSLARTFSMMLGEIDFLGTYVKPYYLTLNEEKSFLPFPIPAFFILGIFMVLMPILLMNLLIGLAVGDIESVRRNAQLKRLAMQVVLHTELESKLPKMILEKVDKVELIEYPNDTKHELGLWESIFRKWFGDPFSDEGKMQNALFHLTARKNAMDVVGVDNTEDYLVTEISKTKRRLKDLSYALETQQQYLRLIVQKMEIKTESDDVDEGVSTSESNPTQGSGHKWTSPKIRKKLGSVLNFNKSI
# Description: Fluo-4 calcium flux in transfected HEK293T cells on HaTRPA1 | Concentration-response curves of nepetalactone-induced calcium signaling in HEK293T cells heterologously expressing HaTRPA1 or PjTRPA1
# MuTRPA1 = test system: T2, MuTRPA1; type: cell-based, Megalurothrips usitatus; conditions: agonist; DMSO as negative control
# T2 construct: gene TRPA1; full-length ORF (1403 aa, 16 ankyrin repeats) in pcDNA3.1(+)-mCherry, HEK293T cells
# PjTRPA1 = test system: T3, PjTRPA1; type: cell-based, Propylea japonica; conditions: agonist; DMSO as negative control
# T3 construct: gene TRPA1; full-length in pcDNA3.1(+)-mCherry, HEK293T cells
# Description: Fluo-4 calcium flux in transfected HEK293T cells on PjTRPA1 | Concentration-response curves of nepetalactone-induced calcium signaling in HEK293T cells heterologously expressing HaTRPA1 or PjTRPA1
# DcTRPA1 = test system: T4, DcTRPA1; type: cell-based, Diaphorina citri; conditions: agonist; DMSO as negative control
# T4 construct: gene TRPA1; full-length ORF (1073 aa, 14 ankyrin repeats) in pcDNA3.1(+)-mCherry, HEK293T cells
smiles,measurement,setting,value
CC1=COC(=O)C2C(C)CCC12 (stereo not shown) [nepetalactone],EC50,HaTRPA1,404 µM
same,EC50,MuTRPA1,172 µM
same,EC50,PjTRPA1,128 µM
same,EC50,DcTRPA1,698 µM
